Reference: patent publication US10391115B2, “Anticancer adjuvant composition containing RIP3 expression promoter as active ingredient, method for screening for anticancer adjuvant enhancing sensitivity of anticancer drug by promoting RIP3 expression, and method for monitoring sensitivity of anticancer drug” (AJOU UNIVERSITY INDUSTRY-ACADEMIC COOPERATION FOUNDATION, priority 2014, dated 2019)

What was measured:
[1] = test system: HeLa cell line (non-target / shRIP3); assay: Sensitization by 5-AD plus anticancer drug in non-target and shRIP3 HeLa cell lines (immunoblotting, MTT assay); assay type: cell-based, human
Procedure: A MISSION short-hairpin RNA (shRNA) plasmid that targets the coding region or 3′ UTR of hRIP3 mRNA (NM_006871) or a non-target control sequence (NM-027088) were obtained from Sigma-Aldrich. A Lentivirus plasmid was transfected into 293T cells (System Biosciences, LV900A-1) using Lipofectamine 2000 (Invitrogen, 11668019). Pseudoviral particles were collected at 2 days after transfection of the Lentivirus plasmid and infected into various cancer cells in the presence of polybrene (10 μg/mL). At 2 days after infection, infected cells were selected with puromycin, and RIP3 knockdown was confirmed by immunoblotting. Cells without endogenous RIP3 were afterwards treated with 5-AD for 4 days and analyzed by immunoblotting.
Unlike a non-target cell line, in the case of a shRIP3 cell line, RIP3 expression in the cell line was inhibited by shRNA, even though the cell line was treated with 5-AD. Thus, the effect of RIP3 on sensitization of the cell line by a combined treatment with the anticancer drug and the demethylating agent could be confirmed. […] In addition, after the same number of cells seeded, the sensitization effect by the combined treatment with the anticancer drug was analyzed using a cell viability assay (MTT assay) (FIG. 6).
Because the demethylating agent (5-AD or 5-AZA) is not a specific drug for a certain protein, it may cause expression of various proteins in addition to RIP3.

[2] = test system: RIP3 expression in cancer cell lines (HeLa, MDA-MB231, BT549); assay: RIP3 expression by demethylating agent 5-AD, Western blotting; assay type: cell-based; details: MDA-MB231, BT549 that express no RIP3, 5-AD 2 uM, treated two times for 4 days
Procedure: (§1) Cells were lysed in M2 buffer. Equal amounts of cell extracts were analyzed by SDS-PAGE and immunoblotting, and blots were visualized by enhanced chemiluminescence (ECL, Amersham).

[3] = test system: HeLa cell lines; assay: Sensitization of cancer cell death by combined treatment with demethylating agent and anticancer drug; details: pretreated two times for 4 days to induce RIP3 expression, then anticancer drug
[4] = test system: HT-29 cells; assay: Viability assay (MTT) of RIP3-silenced HT-29 cells with anticancer drugs; assay type: cell-based, human; details: doxorubicin 2.5 and 5 uM, etoposide 50 and 100 uM, 48 hours
Procedure: HT-29 cells (American Tissue Culture Collection) were cultured in a 37° C. incubator using DMEM medium supplemented with penicillin-streptomycin (10 IU/ml) and 10% FBS. The shRNAi double strand used in the present invention was commercially synthesized by Sigma-Aldrich. The shRNA used in the present invention was designed so as to target the coding region of a human RIPK3 mRNA sequence (NCBI Reference sequence NM_006871).
First, cultured HT-29 cells were dispensed in a 35-mm dish at a density of 2×10^5 cells. On the next day, the cells were infected with shRNA particles together with polybrene (10 ug/ml) according to the protocol's instruction.
In the present invention, in order to examine whether the RIP3 gene is associated with anticancer drug sensitivity, HT-29 cells infected with RIP3 shRNA were treated with varying concentrations of doxorubicin and etoposide, and then the cell viability of the cancer cells was measured. Particularly, HT-29 cells infected with RIP3 shRNA were treated with 2.5 uM and 5 uM of doxorubicin and 50 uM and 100 uM of etoposide, and then incubated for 48 hours. After the medium was replaced with a fresh medium containing 0.1 mg of MTT (3-([4,5-dimethylthiazol-2-yl]-2,5-diphenyltetrazolium bromide), the cells were further incubated for 2 hours. Colorimetric analysis was performed on a precipitate obtained by reducing a tetrazolium salt, in which viable cells is dissolved, into purple formazan crystal. Next, the medium was removed, and the produced formazan crystal was dissolved in 500 ul of DMSO, and the absorbance was measured using an ELISA reader at 570 nm. Cell viability was expressed as a percentage relative to the control taken as 100% viability.

[5] = test system: T47D breast cancer cells; assay: Viability assay (MTT) of RIP3-silenced T47D cells with anticancer drugs; assay type: cell-based, human; details: 48 hours; for anticancer drug resistance (MTT assay): RIP3-knocked down T47D test group vs control group; for cell killing (MTT assay): control group T47D
Procedure: In order to examine whether RIP3 also has an effect on breast cancer cells, RIP3-expressing T47D cells were used. First, the cells were infected with RIP3 in the same manner as described in Example 6.
In order to examine whether RIP3 increases anticancer drug sensitivity in T47D breast cancer cells, an MTT assay was performed. A control group and a RIP3-knocked down test group were incubated with doxorubicin, etoposide and taxol at the concentrations shown in FIG. 11 (right) for 48 hours.

[6] = test system: RIP3 expression in DLD-1 colorectal cancer cell line; assay: RIP3 expression by demethylating agent 5-AZA, Western blotting; assay type: cell-based; details: DLD-1 not expressing RIP3; various concentrations of 5-AZA, treated two times for 4 days
Procedure: as §1

[7] = RIP3 knocked down with shRNA HT-29
[8] = control group (non-target shRNA) HT-29

Compound | sensitization to cell death by anticancer drug after demethylating agent pretreatment [3] | cell viability (MTT) [4, 7] | cell viability (MTT) [4, 8] | anticancer drug resistance (MTT assay) [5] | cell killing (MTT assay) [5] | also measured
Nc1ncn([C@H]2C[C@H](O)[C@@H](CO)O2)c(=O)n1 [5-AD, 5-aza-2′-deoxycytidine] | sensitized to anticancer drug | – | – | – | – | sensitization of cancer cell death by combined treatment with anticancer drug ([1]; non-target HeLa cell line, 5-AD treated two times for 4 days): showed the effect of sensitizing the cancer cell death by RIP3 expression; sensitization of cancer cell death by combined treatment with anticancer drug (cell viability assay) ([1]; shRIP3 HeLa cell line that expresses no RIP3): the sensitization effect was inhibited; RIP3 expression after 5-AD treatment ([1]; shRIP3 HeLa cell line, 5-AD treated two times for 4 days): RIP3 was not expressed; RIP3 expression (Western blotting) [2]: RIP3 expression was induced
COc1cccc2c1C(=O)c1c(O)c3c(c(O)c1C2=O)C[C@@](O)(C(=O)CO)C[C@@H]3O[C@H]1C[C@H](N)[C@H](O)[C@H](C)O1 [doxorubicin] | – | the cell viability increased compared to that of the control group | the cell viability decreased dependently on the concentration | significantly increased compared to that of the control group | killed dependently on the concentration | –
COc1cc([C@@H]2c3cc4c(cc3[C@@H](O[C@@H]3O[C@@H]5CO[C@@H](C)O[C@H]5[C@H](O)[C@H]3O)[C@H]3COC(=O)[C@H]23)OCO4)cc(OC)c1O [etoposide] | – | the cell viability increased compared to that of the control group | the cell viability decreased dependently on the concentration | significantly increased compared to that of the control group | killed dependently on the concentration | –
CC(=O)O[C@H]1C(=O)[C@@]2(C)[C@H]([C@H](OC(=O)c3ccccc3)[C@]3(O)C[C@H](OC(=O)[C@H](O)[C@@H](NC(=O)c4ccccc4)c4ccccc4)C(C)=C1C3(C)C)[C@]1(OC(C)=O)CO[C@@H]1C[C@@H]2O [taxol] | – | – | – | significantly increased compared to that of the control group | killed dependently on the concentration | –
Nc1ncn([C@@H]2O[C@H](CO)[C@@H](O)[C@H]2O)c(=O)n1 [5-AZA, 5-azacytidine] | the effect of sensitizing the cancer cell line to cell death was obtained | – | – | – | – | RIP3 expression (Western blotting) [6]: RIP3 expression was induced
